In ChEMBL document CHEMBL2086221, “Armeniaspiroles, a new class of antibacterials: Antibacterial activities and total synthesis of 5-chloro-Armeniaspirole A” (Bioorg Med Chem Lett, 2012):
Activity calls are given as the source filed them. No cut-off for these calls is given here.

What was measured:
Escherichia coli [1] = test: Bacteriostatic activity against Escherichia coli ATCC 35218 expressing LacR by time kill study in presence of fetal calf serum; assay type: functional, organism-based
Staphylococcus aureus [2] = test: Antibacterial activity against methicillin-resistant Staphylococcus aureus ATCC 33592 at >1 ug/mL after 48 hrs; assay type: functional, organism-based
Streptococcus pneumoniae [3] = test: Antibacterial activity against penicillin-resistant Streptococcus pneumoniae DSM 11865 at >1 ug/mL after 48 hrs; assay type: functional, organism-based
Escherichia coli [4] = test: Antibacterial activity against Escherichia coli ATCC 35218 expressing LacR; assay type: functional
Pseudomonas aeruginosa [5] = test: Antibacterial activity against Pseudomonas aeruginosa ATCC 27853 at >1 ug/mL after 48 hrs; assay type: functional, organism-based
Pseudomonas aeruginosa [6] = test: Bacteriostatic activity against Pseudomonas aeruginosa ATCC 27853 by time kill study in presence of fetal calf serum; assay type: functional, organism-based
Enterococcus faecium [7] = test: Bacteriostatic activity against vancomycin-resistant Enterococcus faecium DSM 17050 by time kill study in presence of fetal calf serum; assay type: functional, organism-based
Pseudomonas aeruginosa [8] = test: Antibacterial activity against Pseudomonas aeruginosa ATCC 27853; assay type: functional
Escherichia coli [9] = test: Antibacterial activity against Escherichia coli ATCC 35218 expressing LacR at >1 ug/mL after 48 hrs; assay type: functional, organism-based
Staphylococcus aureus [10] = test: Antibacterial activity against methicillin-resistant Staphylococcus aureus ATCC 33592; assay type: functional
Enterococcus faecium [11] = test: Antibacterial activity against vancomycin-resistant Enterococcus faecium DSM 17050 at >1 ug/mL after 48 hrs; assay type: functional, organism-based
Streptococcus pneumoniae [12] = test: Antibacterial activity against penicillin-resistant Streptococcus pneumoniae DSM 11865; assay type: functional
Streptococcus pneumoniae [13] = test: Bacteriostatic activity against penicillin-resistant Streptococcus pneumoniae DSM 11865 by time kill study in presence of fetal calf serum; assay type: functional, organism-based
Enterococcus faecium [14] = test: Antibacterial activity against vancomycin-resistant Enterococcus faecium DSM 17050; assay type: functional
Staphylococcus aureus [15] = test: Bacteriostatic activity against methicillin-resistant Staphylococcus aureus ATCC 33592 by time kill study in presence of fetal calf serum; assay type: functional, organism-based
Pseudomonas aeruginosa [16] = test: Bacteriostatic activity against Pseudomonas aeruginosa ATCC 27853 by time kill study; assay type: functional, organism-based
Escherichia coli [17] = test: Bacteriostatic activity against Escherichia coli ATCC 35218 expressing LacR by time kill study; assay type: functional, organism-based
[18] = Staphylococcus aureus, ATCC 33592
[19] = Streptococcus pneumoniae, DSM 11865
[20] = Enterococcus faecium, DSM 17050

Row | Compound | Activity (Escherichia coli [1]) | Activity (Staphylococcus aureus [2]) | Activity (Streptococcus pneumoniae [3]) | IC80 (Escherichia coli [4]) [µM] | Activity (Pseudomonas aeruginosa [5]) | Activity (Pseudomonas aeruginosa [6]) | Activity (Enterococcus faecium [7]) | IC80 (Pseudomonas aeruginosa [8]) [µM] | Activity (Escherichia coli [9]) | IC80 (Staphylococcus aureus [10]; [18]) [µM] | Activity (Enterococcus faecium [11]) | IC80 (Streptococcus pneumoniae [12]; [19]) [µM] | Activity (Streptococcus pneumoniae [13]) | IC80 (Enterococcus faecium [14]; [20]) [µM] | Activity (Staphylococcus aureus [15]) | IC80 (Streptococcus pneumoniae [12]) [µM] | Activity (Pseudomonas aeruginosa [16]) | Activity (Escherichia coli [17]) | IC80 (Staphylococcus aureus [10]) [µM] | IC80 (Enterococcus faecium [14]) [µM]
1 | CCCCCCc1c(O)c(Cl)cc2c1O[C@@]1(C2=O)C(Cl)=C(Cl)C(=O)N1C | inactive | Active | Active | > 30 | Active | inactive | inactive | > 30 | Active | 1.4 | Active | 0.5 | inactive | 6.7 | inactive |  |  |  |  | 
2 | CCCCCCc1c(O)c(Cl)cc2c1OC1(C2=O)C(Cl)=C(Cl)C(=O)N1C (racemic) | inactive | Active | Active | > 30 | Active | inactive | inactive | > 30 | Active | 3.1 | Active | 1.3 | inactive | 5.2 | inactive |  |  |  |  | 
3 | CCCCCCc1c(O)c(Cl)cc2c1O[C@]1(C2=O)C(Cl)=C(Cl)C(=O)N1C (stereo in doubt; form 1) [listing 1 of 2 here] |  |  |  | > 30 |  |  |  | > 30 |  | 5.1 |  |  |  | 8.5 |  | 1.7 |  |  |  | 
4 | CCCCCCc1c(O)c(Cl)cc2c1O[C@]1(C2=O)C(Cl)=C(Cl)C(=O)N1C (stereo in doubt; form 1) [listing 2 of 2 here] | inactive | Active | Active |  | Active | inactive | inactive |  | Active |  | Active |  | inactive |  | inactive |  | Dose-dependent effect | Dose-dependent effect |  | 
5 | CCCCCCc1c(O)c(Cl)cc2c1O[C@]1(C2=O)C(Cl)=C(Cl)C(=O)N1C (stereo in doubt; form 2) |  |  |  |  |  |  |  |  |  |  |  |  |  |  |  | 0.4 |  |  | 3.7 | 8.2
